Experimental data: patent publication US20220249710A1, “BIOREDUCTIVELY-ACTIVATED COMPOUNDS, THEIR PRODRUGS, RADIOPHARMACEUTICALS, THE COMPOSITIONS, AND THEIR APPLICATIONS IN MULTIMODAL THERANOSTIC MANAGEMENT OF HYPOXIA DISEASES INCLUDING CANCER” (The Governors of the University of Alberta, priority 2017, published 2022)

Tested on: FaDu tumor
Assay: In vivo radiosensitization therapy of FaDu tumor-bearing NuNu mice
Conditions: bi-flank FaDu tumor-bearing NuNu mice, single chemical dose (20% of MTD) followed by single 10 Gy external beam radiotherapy
Source text: In very brief, the evaluation of radiosensitization potential of IAZA using a single chemical dose (20% of the maximum tolerated dose; MTD) and a single radiation dose (10 Gy) was done in ‘bi-flank FaDu tumor-bearing NuNu mice was done. Benefits of IAZA-bestowed radiosensitization therapy effects were compared with the conventional radiotherapy alone (a single 10 Gy dose).
FIGS. 28 and 29 depict IN VIVO RADIOSENSITIZATION THERAPY OF FaDu TUMOR BEARING NU-NU MICE USING A SINGLE CHEMICAL DOSE OF IAZA (20% of MTD) AND 10 Gy RADIATION DOSE (Green stain indicates the hypoxic region in tumor)

[1] = compared with radiotherapy alone

With `O=[N+]([O-])c1nccn1[C@@H]1O[C@H](C[125I])[C@@H](O)[C@@H]1O` [IAZA] the morbidity was “no morbidity”, the “hypoxic content of the tumor” value [1] was “Reduction in hypoxic content of the tumor” and the tumor size [1] was “tumor size reduction”.
